Publication PMC7932521, “2-aminobenzimidazoles for leishmaniasis: From initial hit discovery to in vivo profiling” (PLoS Neglected Tropical Diseases, 2021)
Read-outs that look alike come from different tables or passages of the source.

Assays:
[1] = Mouse liver microsomal stability; format: in vitro ADME; conditions: for microsomal CLint at 0.5 μM: CD1, mouse, liver microsomes, pH 7.4, S1 Data, read-out: MLM CLint
Method: The metabolic stability of the compounds was evaluated in human (pool of 200 donors, XenoTech) and mouse liver microsomes (CD1 mouse, GIBCO). Test compounds were prepared at a concentration of 0.5 μM and incubated with 0.25 mg/mL liver microsomes at pH 7.4 and 37°C. The reaction was started by addition of NADPH at […]. Samples were taken at 0, 5, 10, 15, 20 and 30 minutes. The reaction was stopped by the addition of acetonitrile:methanol (1:1) containing an internal standard (tolbutamide at 50 nM). Compounds were quantified by liquid chromatography triple quadrupole mass spectrometry (LC-MS/MS). Peak area ratios (analyte/internal standard) were converted to % remaining using the area ratio at time 0 as 100%. Half-life (t1/2 = ln(2)/k) in minutes and intrinsic clearance (Clint = k x 1000/(0.25)) in μL/min/mg were calculated using a non-linear regression from % remaining versus incubation time. From this plot, the slope (k) was determined. The analysis conditions were: analytical column (Gemini C18, […], Phenomenex), electrospray ionization source (ESI) in positive and negative mode, mobile phase A (water + 0.1% formic acid) and B (acetonitrile + 0.1% formic acid), flow rate of 0.7 mL/min.

[2] = tested on: PMM (Primary Mouse Macrophages); experiment: Cytotoxicity on primary peritoneal mouse macrophages; format: cell-based; conditions: Mus musculus, Macrophage, read-out: PMM IC50
Method: (§1) Leishmania infantum MHOM/MA(BE)/67/ITMAP263 amastigotes were collected from the spleen of infected donor Golden hamsters. Primary peritoneal mouse macrophages (PMM) were used as host cells for in vitro assays. PMM were collected from Swiss mice after 2 days of peritoneal stimulation with a 2% suspension of potato starch and maintained in RPMI-1640 medium supplemented with 200 mM L-glutamine, antibiotics and 5% FCS at 37°C and 5% CO2. Promastigotes of L. infantum chagasi (luciferase) (MHOM/BR/2005/NLC) obtained as described in Reimão et al.,[27] were grown in M199 medium supplemented with 10% FCS, 0.25% hemin, 32 μg/ml hygromycin and 2% sterile human urine at 25°C and 5% CO2.
(§2) Stock solutions of the compounds at 20 mM were prepared in 100% DMSO. Next, the compounds were serially pre-diluted in DMSO followed by a further dilution in demineralized water to assure a final in-test DMSO concentration below 1%. The compounds were tested at 4-fold dilutions starting at 64 μM.

[3] = tested on: Leishmania infantum MHOM/MA(BE)/67/ITMAP263 amastigotes; experiment: L. infantum intracellular amastigote assay in PMM; format: cell-based; conditions: for SI: selectivity index (CC50 / IC50): CC50 / L. infantum IC50; for IC50: Leishmania infantum, read-out: L. infantum IC50; for potency compared to initial hit 1: L. infantum IC50
Method: as §1, §2
For the antileishmania in vitro assays, 3×10^4 PMM/well were seeded in 96-well plates. After 24h, 5×10^5 amastigotes/well were added and incubated for 2h at 37°C. Next, the compounds in 4-fold serial dilutions were added and the plates were further incubated for 5 days (37°C, 5% CO2). Parasite burdens were assessed using an inverted microscope after Giemsa staining. The results were expressed as percent reduction in parasite burdens compared to negative control wells (100% growth) and IC50 values were determined. Values represent the geometric mean of at least two independent experiments. Miltefosine was used as the positive control in all plates.

MRC-5 cytotoxicity = format: cell-based; conditions: human, MRC-5 cells; S1 Data
[4] = Parallel artificial membrane permeability assay (PAMPA); format: in vitro ADME
Method: To determine the passive permeability of the compounds, a 96-well plate containing membranes pre-coated with lipids (Corning Gentest # 353015) was used. The solutions of the compounds were prepared by diluting the stock solutions (10mM) in phosphate buffered saline (PBS) pH 6.5 at a final concentration of 10μM. The solutions diluted in PBS pH 6.5 were then added to the donor portion of the plate (300 μl/well), while PBS pH 7.4 (200 μl/well) was added to the acceptor portion. The two portions of the plate were then coupled, and the system was incubated for 5 h at 37°C. At the end of the incubation, samples were collected from the donor and acceptor plates, and then added to plates containing quench solution (10% water and 90% methanol: acetonitrile (50:50) + 50 nM tolbutamide). The final concentrations of compounds in the donor, acceptor, and initial solution (T0) wells were analyzed using LC-MS/MS. The results were used to calculate an effective permeability (Pe) value. The PAMPA assay was performed in triplicate (n = 3).

[5] = Experimental distribution coefficient (eLogD); format: physicochemical; conditions: pH 7.4
Method: To determine the lipophilicity of the compounds, a methodology based on the retention time of molecules in reverse stationary phase (Ascentis RP-Amide HPLC column) was used. The chromatogram was obtained using LC-MS/MS. Test compounds were prepared at 1.0 μg/mL by adding the stock solution at (1:1) mobile phases A:B + internal standard at 200nM (A: 5% methanol in 10mM ammonium acetate pH 7.4, B: 100% methanol), DMSO concentration must be lower than 2%. […] The retention time (in minutes) of each of the eight standards was plotted against their LogD values. The resulting equation for the calibration curve (y = mx + b) was used to calculate the LogD values for the test compounds.

[6] = 120 h, intracellular amastigotes in PMM, 5 days
[7] = PAMPA, S1 Data, read-out: PAMPA Pe
[8] = reverse stationary phase HPLC column (Ascentis RP-Amide), S1 Data

Structure (SMILES) | microsomal CLint at 0.5 μM [1] [µL/min/mg] | IC50 [2] [µM] | SI: selectivity index (CC50 / IC50) [3] | IC50 [3, 6] [µM] | IC50 ([3]; S1 Data) [µM] | CC50 (MRC-5 cytotoxicity) [µM] | Papp at 5 h, 10 μM [4, 7] [×10⁻⁶ cm/s] | potency compared to initial hit 1 [3] [fold] | MLM CLint ([1]; S1 Data) [µL/min/mg] | eLogD ([5]; experimental) | chromatographic logD [5, 8] | MLM CLint ([1]; mouse liver microsome intrinsic clearance) [µL/min/mg] | chromatographic logD ([5]; reverse-phase HPLC retention (Ascentis RP-Amide column), experimental) | Papp at 5 h, 10 μM ([4]; passive permeability, read-out: PAMPA) [×10⁻⁶ cm/s]
Cn1nccc1C(=O)Nc1nc2ccc(C#N)cc2n1CC(C)(C)O [Compound 49, O=C(c1ccnn1C)Nc2nc(ccc(C#N)c3)c3n2CC(O)(C)C] | < 23 | > 64 | 2 | 36 | 36 | > 64 | 9.39 |  |  |  |  |  |  | 
Cn1nccc1C(=O)Nc1nc2ccc(C#N)cc2n1C1CC1 [Compound 31, O=C(c1ccnn1C)Nc2nc(ccc(C#N)c3)c3n2C4CC4] | 162 | > 64 | 2 | 30 | 30 | > 64 | 14.4 |  |  |  |  |  |  | 
CCN(CC)CCCn1c(NC(=O)c2ccnn2C)nc2ccc(C#N)cc21 [Compound 52, CCN(CC)CCCn1c(cc(C#N)cc2)c2nc1NC(c3ccnn3C)=O] | 59 | > 64 | 1 | 57 | 57 | > 64 |  |  |  |  |  |  |  | 
Cn1c(NC(=O)Cc2ccc(Cl)cc2)nc2ccccc21 [Compound 17, O=C(Nc1n(C)c(cccc2)c2n1)Cc3ccc(Cl)cc3] |  | 32 |  | 33 | 32.5 | > 64 |  |  |  |  |  |  |  | 
Cc1ccc(C(=O)Nc2nc3ccc(C#N)cc3n2CC(F)(F)F)cn1 [Compound 42, O=C(c1ccc(C)nc1)Nc2nc(ccc(C#N)c3)c3n2CC(F)(F)F] |  | 8 | 2 | 4.7 | 4.65 | > 64 | 13.2 |  |  |  |  |  |  | 
N#Cc1ccc2nc(NC(=O)c3cnc(C(F)(F)F)nc3)n(CC(F)(F)F)c2c1 [Compound 46, O=C(c1cnc(C(F)(F)F)nc1)Nc2nc(ccc(C#N)c3)c3n2CC(F)(F)F] |  | 4 | 4 | 1 |  | 1.78 | 1.46 | 10 to 20 |  |  |  |  |  | 
CCCn1c(NC(=O)Cc2ccc(Cl)cc2)nc2cc(C(F)(F)F)ccc21 [Compound 7, CCCn1c(ccc(C(F)(F)F)c2)c2nc1NC(Cc3ccc(Cl)cc3)=O] |  | 16 | 8 | 2 | 2.01 | 11.2 |  | 6 | 283 | 4.7 | 4.69 |  |  | 
CCN(CC)CCCn1c(NC(=O)Cc2ccc(F)cc2)nc2ccc(C#N)cc21 [Compound 26, CCN(CC)CCCn1c(cc(C#N)cc2)c2nc1NC(Cc3ccc(F)cc3)=O] | 154 | > 64 |  |  | > 64 | > 64 |  |  |  |  |  |  |  | 
CCCn1c(NC(=O)Cc2ccc(Cl)cc2)nc2ccccc21 [Compound 1] |  | > 64 |  | 12 |  |  |  |  |  |  |  | 3094 | 4.6 | 6.7
O=C(Cc1ccc(F)cc1)Nc1nc2cc(F)ccc2n1C1CCNCC1 [Compound 25, O=C(Nc1n(C2CCNCC2)c(c3n1)ccc(F)c3)Cc4ccc(F)cc4] |  | > 64 |  | 34 | 34.4 | > 64 | 0.19 |  |  |  | 3.08 |  |  | 
